# Laboratory results from patent publication EP0958819A1, “REMEDIES/PREVENTIVES FOR ABNORMAL MOTIONS ACCOMPANYING DISORDERS IN EXTRAPYRAMIDAL SYSTEM” (Asahi Kasei Kogyo Kabushiki Kaisha, priority 1996, dated 1998).
# Counter-ions that a name gives are not always drawn. Marks after values point to notes of the source that are not given here.
# Experiments:
# [1] = tested on: haloperidol-induced catalepsy; test: Preventive effect for catalepsy model, haloperidol-induced; assay type: in vivo, Wistar rats; details: 1 mg/kg p.o. 30 minutes before haloperidol 2 mg/kg i.p.; catalepsy observed 1 hour after haloperidol; shortening of catalepsy duration vs distilled water group; 10 rats
# Experimental: (§1) When a drug having dopamine receptor blocking activity is administered in rats, catalepsy induced. Catalepsy means a symptom of rats, which can not recovered by own intention, when rats are enforced unnatural posture, and it reflects abnormal movements consisting of mainly tremor, muscle rigidity and hypokinesia. (Hornykiewicz, O. Br. Med. Bull., 29, 172 - 178, 1973). […] (Schmidt, W.J. and Bubser, M., Pharmacol. Biochem. Behavior., 32, 621 - 623, 1988).
# (§2) The compound A hydrochloride, 1mg/kg, was administered orally into Wistar rats, male (Japan Charles River Inc.). After 30 minutes, haloperidol (Sigma Corp., U.S.A.), 2mg/kg, or risperidone, which was extracted from Risperdal (trade name, Janssen Corp.,UK) according to the method hereinbelow explained, 20 mg/kg were administered intraperitoneally. Catalepsy after 1 hour of administration of haloperidol or risperidone was observed. Catalepsy was observed by hanging rats in their forepaws on the iron bar, diameter 2 mm, set on the position of 12 cm high, and we measured the time maintaining this posture. Measurements were conducted maximum for 180 seconds. Experiments were conducted in a group of 10 rats for haloperidol induced catalepsy test and a group of 5 rats for risperidone induced catalepsy test. The mean duration of catalepsy in distilled water (vehicle of the compound in present invention)-administered group was defined as 100 %. […]
# [2] = tested on: risperidone-induced catalepsy; test: Preventive effect for catalepsy model, risperidone-induced; assay type: in vivo, Wistar rats; details: 1 mg/kg p.o. 30 minutes before risperidone 20 mg/kg i.p.; catalepsy observed 1 hour after risperidone; shortening of catalepsy duration vs distilled water group; 5 rats
# Experimental: as §1, §2
# [3] = tested on: haloperidol-induced catalepsy; test: Therapeutic effect against catalepsy model, haloperidol-induced; assay type: in vivo, Wistar rats; details: 1 mg/kg p.o. given 45 minutes after haloperidol 2 mg/kg i.p. to rats showing catalepsy; measured 75 minutes after compound; 10 rats
# Experimental: (§3) Therapeutic effects of the compound of the present invention on haloperidol or risperidone induced catalepsy were examined using Wistar rats, male (Charles River Inc., Canada).
# After further 15 minutes, the compound of the present invention or distilled water was administered orally. Therapeutic effect of the present compound against haloperidol induced catalepsy was measured after 75 minutes of administration of the compound of the present invention.
# (§4) Catalepsy was observed by hanging rats in their forepaws on the iron bar, diameter 2 mm, set on the position of 12 cm high, and we measured the duration of catalepsy. Measurements were conducted maximum for 180 seconds. Experiments were conducted in a group of 10 rats for haloperidol-induced catalepsy test and a group of 5 to 6 rats for risperidone induced catalepsy test. The mean duration of catalepsy in distilled water (vehicle of the compound in present invention)-administered group was defined as 100 %. Suppressive rate was indicated as percent of the shortening on the duration of catalepsy in the compound-administered group comparing with the mean of that in distilled water administered group.
# [4] = tested on: risperidone-induced catalepsy; test: Therapeutic effect against catalepsy model, risperidone-induced; assay type: in vivo, Wistar rats; details: 1 mg/kg p.o. given 75 minutes after risperidone 20 mg/kg i.p. to rats showing catalepsy; measured 105 minutes after compound; 5 to 6 rats
# Experimental: as §3
# After further 15 minutes, the compound of the present invention or distilled water was administered orally. Therapeutic effect of the present compound against risperidone induced catalepsy was measured after 105 minutes of administration of the compound of the present invention.
# as §4
# red nucleus = test: Effect on the firing rate in the red nucleus (electrophysiology, anesthetized rats); assay type: in vivo, Wistar rats; details: firing rate before administration = 100 %
# Text: The red nucleus belongs extrapyramidal system and have an important role for regulating motor function. Destruction of the red nucleus in rats was reported to enhance the catalepsy. (Kolasa. K. et al., Pharmacol. Biochem. Behav.,51, 29 - 35, 1995). As shown in Example 4 dystonia model, unilateral infusion of haloperidol into red nucleus of rats results to appear dystonia. As shown like this, the hypofunction of red nucleus have a close relation with the expression of abnormal movements accompanying disorders of extrapyramidal system. Namely, hypofunction of red nucleus is considered to lead to the abnormal movements accompanying disorder of extrapyramidal system. In this experiment, effect of the compound of the present invention on the haloperidol-induced decrease of firing rate in red nucleus was examined. […]
# Electric signals from the glass electrode were amplified with a micro electrode amplifier (MEZ-8301, Nihon Koden Co., Japan), filtered band path of 3 kHz - 50 Hz and humfilter and monitored on a oscilloscope (VC-11, Nihon Koden Co., Japan). […] Number of firing/10 seconds (firing rate) was calculated using pulse counter (MET-1100, Nihon Koden Co., Japan) and recorded by computer (Maclab ver. 3.5. Macintosh) with time dependent manner. […]
# [5] = tested on: involuntary head-movements induced by IPDN; test: Antagonistic action against IDPN model (head movements); assay type: in vivo, Sprague-Dawley rats; details: 1 mg/kg p.o.; IDPN 150 mg/kg i.p. for 6 days; counted during 30 minutes starting 30 minutes after dosing; mean ± standard error, 6 rats; control group 347 ± 14.4; p < 0.01
# Experimental: When […] (IDPN, Tokyo Kasei Kogyo K.K., Japan) is administered in rats, rapid reciprocation of horizontal and vertical head movements is induced. […] This is very similar to the abnormal movements accompanying disorders of extrapyramidal system of human, which is classified into the group with major symptom of rapid involuntary movement and muscle hypotonia. (Schneider, J. S., Exp. Neurol., 84, 524 - 532, 1984).
# IDPN (Tokyo Kasei Kogyo K.K., Japan) 150 mg/kg was administered to Sprague-Dawley rats (Charles River Inc., 7 weeks old) for 6 days intraperitoneally. Animals expressing horizontal and vertical head movements (at initiation of the experiment: 12 - 14 weeks old) within after 2 weeks of administration were used for dyskinesia model animals. The compound of the present invention (1 mg/kg) or distilled water (as a control group) was administered orally in rats. After 30 minutes, numbers of horizontal and vertical head movements neck during 30 minutes thereafter were counted. One reciprocation is counted as one motion.
# dystonia model = test: Inhibitory effect against dystonia model (haloperidol infused into red nucleus); assay type: in vivo, Wistar rats; details: combined infusion of haloperidol 3 nmol and compound 0.03 nmol into red nucleus; maximum torsional angle, mean ± S.D., 12 rats; control (haloperidol 3 nmol) 24.1 ± 1.7; p<0.01
# Text: Unilateral infusion of haloperidol into red nucleus of rats results to appear continuous torsional movements of the head when the infusion side was laid down under side. This model reflects dystonia characterized by slow involuntary movement and hypermyotonia, which is one of abnormal movements accompanying disorders of extrapyramidal system. (Matsumoto, R.R. et al. Pharmacol. Biochem. Behavior.,36, 151 - 155, 1989). Evaluation of the compound of the present invention on dystonia model was performed by the following method.
# Wistar rats (Japan Charles River Inc., 9 weeks old) were anesthetized by administration of pentobarbital (Somnopentil injection) 50 mg/kg intraperitoneally, and fixed the head by stereotaxic apparatus (David Coop Inc. U.S.A., David kopf). Scalp was incised and the bone of skull was exposed. Guide cannula 25G (Eicom Inc., Japan) was implanted 4.5 mm the above the left red nucleus and fixed with dental cement. After 2 - 3 days, injection cannula 27G (Eicom Inc., Japan) was inserted into the guide cannula without anesthetization. The tip of the cannula was introduced into the red nucleus below 4.5 mm of the guided cannula. […]
# Rats were set into the observation cage made with transparent acrylic resin and recorded the front view image by video camera. […]
smiles,measurement,setting,value
"CC1(C)C2CC[C@]1(C)CN(CCC1C3CC4CC(C3)CC1C4)C2 (stereo partly drawn) [Compound A hydrochloride, (1S)-3-[2-(2-adamantyl)ethyl]-1,8,8-trimethyl-3-azabicyclo [3.2.1]-octane]","Suppressive rate (mg/kg, p.o.)",[1],77% (1)
same,"Suppressive rate (mg/kg, p.o.)",[2],53% (1)
same,"Suppressive rate (mg/kg, p.o.)",[3],50% (1)
same,"Suppressive rate (mg/kg, p.o.)",[4],48% (1)
same,% Inhibitor of firing rate,"red nucleus; compound 0.1 µg/kg i.v. 1 - 3 minutes before haloperidol 0.2 mg/kg i.v., P<0.05",24.7 %*
"CC1(C)C2CC[C@]1(C)CN(CCC1C3CC4CC(C3)CC1C4)C2 (stereo partly drawn) [Compound A, (1S)-3-[2-(2-adamantyl)ethyl]-1,8,8-trimethyl-3-azabicyclo [3.2.1]-octane]",Numbers of oscillation of neck,[5],224.5 ± 24.4
same,torsional angle of head,dystonia model,15.5 ± 1.3
"O=C(CCCN1CCC(O)(c2ccc(Cl)cc2)CC1)c1ccc(F)cc1 [haloperidol, reference compound]",% Inhibitor of firing rate,red nucleus; saline i.v. 1 - 3 minutes before haloperidol 0.2 mg/kg i.v.,60.1%
